Reference: patent publication US11566002B2, “Substituted tetrahydrocyclopenta[C]pyrroles, substituted dihydropyrrolizines, analogues thereof, and methods using same” (priority 2018, dated 2023)

What follows are compounds tested on HBV rcDNA (assay: HepDE19 assay with bDNA quantitation of HBV rcDNA). Conditions: HepDE19 cells, Tet-free medium, 7 day-incubation, rcDNA measured by Quantigene 2.0 bDNA assay, top concentration 25 μM; read-out: DE-19 bDNA EC50.
Format: cell-based, hepatitis B virus
Method: HepDE19 Assay with bDNA Quantitation of HBV rcDNA:
HepDE19 cell culture system is a HepG2 (human hepatocarcinoma) derived cell line that supports HBV DNA replication and cccDNA formation in a tetracycline (Tet)-regulated manner and produces HBV rcDNA and a detectable reporter molecule dependent on the production and maintenance of cccDNA (Guo, et al., 2007, J. Virol. 81:12472-12484).
HepDE19 (50,000 cells/well) were plated in 96-well collagen-coated tissue-culture treated microtiter plates in DMEM/F12 medium supplemented with 10% fetal bovine serum, 1% penicillin-streptomycin and 1 μg/mL tetracycline and incubated in a humidified incubator at 37° C. and 5% CO2 overnight. Next day, the cells were switched to fresh medium without tetracycline and incubated for 4 hours at 37° C. and 5% CO2. The cells were treated with fresh Tet-free medium with compounds at concentrations starting at 25 μM and a serial, ½ log, 8-point, titration series in duplicate. The final DMSO concentration in the assay was 0.5%. The plates were incubated for 7 days in a humidified incubator at 37° C. and 5% CO2. Following a 7 day-incubation, the level of rcDNA present in the inhibitor-treated wells was measured using a Quantigene 2.0 bDNA assay kit (Affymetrix, Santa Clara, Calif.) with HBV specific custom probe set and manufacturers instructions. Concurrently, the effect of compounds on cell viability was assessed using replicate plates, plated at a density of 5,000 cells/well and incubated for 4 days, to determine the ATP content as a measure of cell viability using the cell-titer glo reagent (CTG; Promega Corporation, Madison, Wis.) as per manufacturer's instructions. The plates were read using a Victor luminescence plate reader (PerkinElmer Model 1420 Multilabel counter) and the relative luminescence units (RLU) data generated from each well was calculated as % inhibition of the untreated control wells and analyzed using XL-Fit module in Microsoft Excel to determine EC50 and EC90 (bDNA) and CC50 (CTG) values using a 4-parameter curve fitting algorithm.
Representative compounds of the invention were tested for their abilities to inhibit formation of relaxed circular DNA (rcDNA) in a HepDE19 assay, as described elsewhere herein.
With `Cn1c(C(=O)Nc2ccc(F)c(Cl)c2)c2c(c1C(F)(F)F)C(NC(=O)OCc1nc[nH]n1)CC2` (single isomer, unassigned) [Compound 127, (1H-1,2,4-Triazol-3-yl)methyl (1-((3-chloro-4-fluorophenyl)carbamoyl)-2-methyl-3-(trifluoromethyl)-2,4,5,6-tetrahydrocyclopenta[c]pyrrol-4-yl)carbamate] the EC50 was 0.44 µM. Work on `Cn1cnc(COC(=O)NC2CCCCc3c2cn(C)c3C(=O)Nc2ccc(F)c(Cl)c2)n1` (single isomer, unassigned) [Compound 89, (1-Methyl-1H-1,2,4-triazol-3-yl)methyl (1-((3-chloro-4-fluorophenyl)carbamoyl)-2-methyl-2,4,5,6,7,8-hexahydrocyclohepta[c]pyrrol-4-yl)carbamate] yielded an EC50 of 2.9 µM. Compound `CCn1cc2c(c1C(=O)Nc1ccc(F)c(Cl)c1)CCC2NS(=O)(=O)C1CC1` (single isomer, unassigned) [Compound 16, N-(3-Chloro-4-fluorophenyl)-4-(cyclopropanesulfonamido)-2-ethyl-2,4,5,6-tetrahydrocyclopenta[c]pyrrole-1-carboxamide] has an EC50 of 0.13 µM. `Cc1c2c(c(C(=O)Nc3ccc(F)c(Cl)c3)n1C)CCC2NC(=O)OCc1ncn(C)n1` (single isomer, unassigned) [Compound 82, (1-Methyl-1H-1,2,4-triazol-3-yl)methyl (1-((3-chloro-4-fluorophenyl)carbamoyl)-2,3-dimethyl-2,4,5,6-tetrahydrocyclopenta[c]pyrrol-4-yl)carbamate] was tested, and the EC50 was 0.11 µM. Compound `Cn1c(Cl)c2c(c1C(=O)Nc1ccc(F)c(Cl)c1)CCC2NC(=O)OCc1nc[nH]n1` (single isomer, unassigned) [Compound 105, (1H-1,2,4-Triazol-3-yl)methyl (3-chloro-1-((3-chloro-4-fluorophenyl)carbamoyl)-2-methyl-2,4,5,6-tetrahydrocyclopenta[c]pyrrol-4-yl)carbamate] has an EC50 of 0.01 µM. `Cn1cnc(COC(=O)NC2CCc3c2c(Br)n(C)c3C(=O)Nc2ccc(F)c(Cl)c2)n1` (single isomer, unassigned) [Compound 48, (1-Methyl-1H-1,2,4-triazol-3-yl)methyl (3-bromo-1-((3-chloro-4-fluorophenyl)carbamoyl)-2-methyl-2,4,5,6-tetrahydrocyclopenta[c]pyrrol-4-yl)carbamate] showed an EC50 of 0.01 µM. Compound `Cc1c2c(c(C(=O)Nc3ccc(F)c(Cl)c3)n1C)CCC2NC(=O)OCc1c[nH]nn1` (single isomer, unassigned) [Compound 130, (1H-1,2,3-Triazol-4-yl)methyl (1-((3-chloro-4-fluorophenyl)carbamoyl)-2,3-dimethyl-2,4,5,6-tetrahydrocyclopenta[c]pyrrol-4-yl)carbamate] has an EC50 of 9 µM. `Cn1cc2c(c1C(=O)Nc1ccc(F)c(Cl)c1)CCC2NC(=O)OCc1n[nH]nc1C1CC1` (single isomer, unassigned) [Compound 147, (5-Cyclopropyl-2H-1,2,3-triazol-4-yl)methyl (1-((3-chloro-4-fluorophenyl)carbamoyl)-2-methyl-2,4,5,6-tetrahydrocyclopenta[c]pyrrol-4-yl)carbamate] showed an EC50 of 3.6 µM. Compound `Cn1nnc(COC(=O)NC2CCc3c2cn(C)c3C(=O)Nc2ccc(F)c(Cl)c2)n1` (centres unmarked) [Compound 142, (2-Methyl-1H-tetrazol-5-yl)methyl (1-((3-chloro-4-fluorophenyl)carbamoyl)-2-methyl-2,4,5,6-tetrahydrocyclopenta[c]pyrrol-4-yl)carbamate] has an EC50 of 3.2 µM. `Cn1c(Cl)c2c(c1C(=O)Nc1ccc(F)c(Cl)c1)CCCC2NC(=O)OCc1cn[nH]n1` (single isomer, unassigned) [Compound 136, (2H-1,2,3-Triazol-4-yl)methyl (3-chloro-1-((3-chloro-4-fluorophenyl)carbamoyl)-2-methyl-4,5,6,7-tetrahydro-2H-isoindol-4-yl)carbamate] was tested, and the EC50 was 1.2 µM. `Cn1cnc(COC(=O)NC2CCc3c2c(C(F)(F)F)n(C)c3C(=O)Nc2ccc(F)c(Cl)c2)n1` (centres unmarked) [Compound 122] was tested, and the EC50 was 0.45 µM. `Cn1cc2c(c1C(=O)Nc1ccc(F)c(Cl)c1)CCC2NC(=O)OCc1c[nH]nn1` (single isomer, unassigned) [Compound 60, (1H-1,2,3-Triazol-4-yl)methyl (1-((3-chloro-4-fluorophenyl)carbamoyl)-2-methyl-2,4,5,6-tetrahydrocyclopenta[c]pyrrol-4-yl)carbamate] showed an EC50 of 0.06 µM.

Same assay, conditions: Hepatitis B virus, HepDE19, 168 h, HepDE19 cells, Tet-free medium, 7 day-incubation, rcDNA measured by Quantigene 2.0 bDNA assay, top concentration 25 μM; read-out: DE-19 bDNA EC50
For `Cn1cnc(COC(=O)NC2CCc3c2cn(C)c3C(=O)Nc2cccc(F)c2)n1` (single isomer, unassigned) [Compound 66, (1-methyl-1H-1,2,4-triazol-3-yl)methyl (1-((3-fluorophenyl)carbamoyl)-2-methyl-2,4,5,6-tetrahydrocyclopenta[c]pyrrol-4-yl)carbamate], the EC50 was 0.9 µM. Compound `Cn1cc2c(c1C(=O)Nc1ccc(F)c(Cl)c1)CCC2N` (centres unmarked) [Compound 100, 4-Amino-N-(3-chloro-4-fluorophenyl)-2-methyl-2,4,5,6-tetrahydrocyclopenta[c]pyrrole-1-carboxamide] has an EC50 of 3.8 µM. `Cn1cc2c(c1C(=O)Nc1ccc(F)c(Cl)c1)CCCCC2=O` [Compound 72, N-(3-chloro-4-fluorophenyl)-2-methyl-4-oxo-2,4,5,6,7,8-hexahydrocyclohepta[c]pyrrole-1-carboxamide] was tested, and the EC50 was 0.05 µM. Work on `Cn1cc2c(c1C(=O)Nc1ccc(F)c(Cl)c1)CCC2NC(=O)OCc1nc[nH]n1` (racemic) [Compound 54, (1H-1,2,4-triazol-3-yl)methyl (1-((3-chloro-4-fluorophenyl)carbamoyl)-2-methyl-2,4,5,6-tetrahydrocyclopenta[c]pyrrol-4-yl)carbamate] yielded an EC50 of 0.06 µM. Compound `Cn1cc2c(c1C(=O)Nc1ccc(F)c(Cl)c1)CCC2NC(=O)OCc1nn[nH]n1` (racemic) [Compound 148, (2H-tetrazol-5-yl)methyl (1-((3-chloro-4-fluorophenyl)carbamoyl)-2-methyl-2,4,5,6-tetrahydrocyclopenta[c]pyrrol-4-yl)carbamate] has an EC50 of 1.9 µM. Work on `Cn1cnc(COC(=O)NC2CCc3c2cn(C)c3C(=O)Nc2cc(F)c(F)c(F)c2)n1` (single isomer, unassigned) [Compound 71, (1-methyl-1H-1,2,4-triazol-3-yl)methyl (2-methyl-1-((3,4,5-trifluorophenyl)carbamoyl)-2,4,5,6-tetrahydrocyclopenta[c]pyrrol-4-yl)carbamate] yielded an EC50 of 0.18 µM. `Cn1cnc(COC(=O)NC2CCc3c2cn(C)c3C(=O)Nc2ccc(F)c(C(F)F)c2)n1` (single isomer, unassigned) [Compound 70, (1-Methyl-1H-1,2,4-triazol-3-yl)methyl (1-((3-(difluoromethyl)-4-fluorophenyl)carbamoyl)-2-methyl-2,4,5,6-tetrahydrocyclopenta[c]pyrrol-4-yl)carbamate] showed an EC50 of 0.07 µM.

Same assay, conditions: Hepatitis B virus, HepDE19, 168 h, read-out: DE-19 bDNA EC50 (μM), HepDE19 cells, Tet-free medium, 7 day-incubation, rcDNA measured by Quantigene 2.0 bDNA assay, top concentration 25 μM
Compound `Cn1c(Br)c2c(c1C(=O)Nc1ccc(F)c(Cl)c1)CCC2NC(=O)OCc1nc[nH]n1` (single isomer, unassigned) [Compound 125, (1H-1,2,4-Triazol-3-yl)methyl(3-bromo-1-((3-chloro-4-fluorophenyl)carbamoyl)-2-methyl-2,4,5,6-tetrahydrocyclopenta[c]pyrrol-4-yl)carbamate] has an EC50 of 0.04 µM.

Same assay, conditions: read-out: DE-19 bDNA EC50; HepDE19 cells, Tet-free medium, 7 day-incubation, rcDNA measured by Quantigene 2.0 bDNA assay, top concentration 25 μM
`CCC#CCOC(=O)NC1CCc2c1cn(C)c2C(=O)Nc1ccc(F)c(Cl)c1` (single isomer, unassigned) [Compound 112, Pent-2-yn-1-yl(1-((3-chloro-4-fluorophenyl)carbamoyl)-2-methyl-2,4,5,6-tetrahydrocyclopenta[c]pyrrol-4-yl)carbamate] showed an EC50 of 5.7 µM. With `COC(=O)NC1CCCCc2c1cn(C)c2C(=O)Nc1ccc(F)c(Cl)c1` (single isomer, unassigned) [Compound 85, Methyl (1-((3-chloro-4-fluorophenyl)carbamoyl)-2-methyl-2,4,5,6,7,8-hexahydrocyclohepta[c]pyrrol-4-yl)carbamate] the EC50 was 1.5 µM. Compound `CC#CCOC(=O)NC1CCc2c1cn(C)c2C(=O)Nc1ccc(F)c(Cl)c1` (single isomer, unassigned) [Compound 110, But-2-yn-1-yl (1-((3-chloro-4-fluorophenyl)carbamoyl)-2-methyl-2,4,5,6-tetrahydrocyclopenta[c]pyrrol-4-yl)carbamate] has an EC50 of 1.5 µM.
